# From patent US9782394B2, “Inhibitors for ERG oncogene positive cancers” (The Henry M. Jackson Foundation for the Advancement of …, priority 2014, dated 2017)
# Assays:
# VCaP cells = assay: Cell growth inhibition, VCaP; assay type: cell-based; details: for inhibition of cell growth: VCaP cells in culture, 1 μM and 10 μM
# Method: (§1) 48 hours following plating of cells, the appropriate test compound is added to each well of the tissue culture dish at a predetermined concentration. The medium was replenished every 24 hours with fresh growth medium containing the same concentration of the same test compound for indicated period of the cell growth inhibition assay. Percent cell growth inhibition was calculated using a hemocytometer for estimating cell density in each of the test wells of the tissue culture dish and trypan blue dye exclusion microscopy and photography to estimate the fraction of viable cells in each test well.
# (§2) The protein inhibition studies described above indicate that ERGi-USU is a selective inhibitor of ERG expression. To investigate whether ERGi-USU selectively arrested the growth of ERG positive cancer cells without arresting the growth of ERG negative cancer cells, a cell growth inhibition study was carried out using the following cancer and normal cell lines: ERG positive cancer cells (VCaP, COLO320, MOLT-4 and KG-1) cancer cells, ERG negative cancer cells (LNCaP, MDA PCa2b and LAPC4) cancer cells, normal prostate RWPE-1 and BPH-1 cells and normal endothelial HUVEC cells. Each cell line was cultured to achieve cells in logarithmic growth and these cells were then plated in 10 cm wells of a tissue culture dishes at a cell density of 2×10^6 cells per well. The plated cells were contacted with 0, 0.1, 0.5, 1.0, 5.0, and 10 μM concentrations of ERGi-USU for a period of 2, 4, 6 and 8 days. At the end of each time period, cells are recovered from the test plate, washed and the cell density and viability determined using a hemocytometer and trypan blue dye staining method. Cell growth inhibition was expressed as a graph correlating cell number to the concentration of ERGi-USU.
# (§3) FIG. 4 illustrates the results of cell growth inhibition studies that were used to calculate the concentration of ERGi-USU needed for inhibiting 50% of the growth (IC50) of the cells mentioned above. As illustrated by this figure, ERGi-USU was a potent inhibitor of the growth of ERG positive cancer cells in culture.
# LNCaP cells = assay: Cell growth inhibition, LNCaP; assay type: cell-based; details: for inhibition of cell growth: ERG negative LNCaP cells, 1 μM and 10 μM
# Method: as §1, §2, §3
# ERG protein = target: T1, ERG protein (Homo sapiens, UniProt P11308); assay: In-cell Western primary screen for inhibitors of ERG expression in VCaP cells; assay type: cell-based; details: single 1 μM dose, 48 hours, duplicate screen
# T1 construct: contacting a TMPRSS2-ERG fusion positive prostate cancer (VCaP) cell line with a fixed concentration of each compound; host or cells: VCaP
# T1 sequence (P11308 33-479 limits assumed): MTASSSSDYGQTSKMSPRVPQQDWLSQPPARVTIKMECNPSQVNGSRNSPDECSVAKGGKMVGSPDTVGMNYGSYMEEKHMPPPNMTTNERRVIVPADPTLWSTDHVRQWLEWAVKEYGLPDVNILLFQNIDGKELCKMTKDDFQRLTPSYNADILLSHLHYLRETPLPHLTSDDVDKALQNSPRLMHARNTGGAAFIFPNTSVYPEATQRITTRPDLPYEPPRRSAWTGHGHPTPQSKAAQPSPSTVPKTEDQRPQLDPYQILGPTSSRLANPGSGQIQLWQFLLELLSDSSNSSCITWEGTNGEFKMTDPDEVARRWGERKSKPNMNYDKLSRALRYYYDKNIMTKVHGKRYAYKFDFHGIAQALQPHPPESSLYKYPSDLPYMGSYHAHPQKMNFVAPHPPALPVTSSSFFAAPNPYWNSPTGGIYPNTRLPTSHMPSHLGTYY
# Text: To identify ERG specific small molecule inhibitors, the present inventors screened a library of small molecule compounds, by contacting a TMPRSS2-ERG fusion positive prostate cancer (VCaP) cell line with a fixed concentration of each compound in the small molecule library. ERG protein expression was monitored using an In-cell Western blot assay (LI-COR Biosciences, Lincoln, Nebr.), using a highly specific ERG monoclonal antibody (CPDR ERG-mAb; 9FY) for detection. See Furusato et al., Prostate Cancer Prostatic Dis., 13:228-372 (2010); Mohamed et al., J. Cancer, 1:197-208, (2010); Miettinen et al., Am. J. Surg Pathol., 35:432-41 (2011); and U.S. patent publication No. 2012/0135018A1.
# The TMPRSS2-ERG fusion positive prostate cancer cell line, VCaP (ATCC), was used to identify small molecule inhibitors of ERG expression. […] The inhibition of ERG expression was evaluated by an In-cell Western blot assay (LI-COR Biosciences, Lincoln, Nebr.) using the ERG specific CPDR ERG-MAb as further described below. […]
# Inhibition of ERG expression by the test compounds was determined by an In-cell Western assay (LI-COR Biosciences, Lincoln, Nebr.). […]
# The tissue culture plates were imaged on a Li-Cor Odyssey Infrared Imaging System and infrared signals were measured to provide values for ERG expression and cell number via DNA staining. […]
# ERG mRNA = assay: Quantitative RT-PCR analysis of ERG transcripts in VCaP cells; assay type: cell-based, human; details: 1 μM, 24 hours
# Method: The ERG inhibitors identified by the primary screen were used in a quantitative RT-PCR assay to evaluate their ability to inhibit ERG mRNA expression. Briefly, VCaP cells were treated at a concentration of 1 μM with each of the ten compounds for 24 hours. Following incubation with the test compounds the cells are lysed and the total RNA isolated. 200 ng of the total RNA was used for analysis of ERG transcripts by qRT-PCR using a pair of ERG primers specific for the coding sequence of tERG for analysis.
# AR = assay: Western blot analysis of AR expression in prostate cancer cells; assay type: cell-based; details: 0.1-10 μM
# Method: (§4) Cultured cells were treated at specific dosages with each of the test ERG inhibitors. Following incubation of the treated cells for indicated time period, cells were lysed using Mammalian Protein Extraction Reagent (M-PER; Pierce, Rockford, Ill.) containing a protease inhibitor cocktail and phosphatase inhibitor cocktails I & III (Sigma, St Louis, Mo.). Cell lysates containing 50 μg of total protein were electrophoresed through 4-12% Bis-Tris Gel (Invitrogen, Carlsbad, Calif.) and the cellular proteins were transferred to PVDF membrane (Invitrogen, Carlsbad, Calif.). Membranes were incubated at 4° C. for 12 hours with primary antibodies for AR, PSA, GAPDH, α-Tubulin, apoptosis markers and cell cycle regulators. Following exposure to primary antibodies, the membranes were washed with buffer (three times, 5 minutes each at room temperature) followed by incubation with relevant secondary antibodies for 1 hour at 24° C. Finally, the membranes were washed with buffer and developed using the ECL Western blot detection reagent (GE Health Care, Buckinghamshire, UK).
# (§5) Briefly, ERG positive VCaP cells and ERG negative LNCaP, MDA PCa2b and LAPC4 cells in logarithmic growth were plated in 10 cm tissue culture dish at a cell density of 2×10^6 cells per dish. The plated cells were contacted with 0, 0.1, 0.5, 1.0, 5.0, and 10 μM concentrations of ERGi-USU for a period of 48 hours. Cells from each dish were then processed for Western blot analysis and alterations in the expression of ERG protein were monitored.
# PSA = assay: Western blot analysis of PSA expression in prostate cancer cells; assay type: cell-based; details: 0.1-10 μM
# Method: as §4, §5
# COLO320 cells = assay: Cell growth inhibition, COLO320; assay type: cell-based; details: Homo sapiens, COLO 320; COLO320, ERG positive colon adenocarcinoma; read-out: Cell growth inhibition (ERGi-USU: IC50)
# Method: as §1
# (§6) The protein inhibition studies described above indicate that ERGi-USU is a selective inhibitor of ERG expression. […] At the end of each time period, cells are recovered from the test plate, washed and the cell density and viability determined using a hemocytometer and trypan blue dye staining method. Cell growth inhibition was expressed as a graph correlating cell number to the concentration of ERGi-USU. […]
# MOLT-4 cells = assay: Cell growth inhibition, MOLT-4; assay type: cell-based; details: Homo sapiens; MOLT-4, ERG positive acute lymphoblastic leukemia; read-out: Cell growth inhibition (ERGi-USU: IC50)
# Method: as §1, §6
# KG-1 cells = assay: Cell growth inhibition, KG-1; assay type: cell-based; details: Homo sapiens; KG-1, ERG positive myeloid leukemia; read-out: Cell growth inhibition (ERGi-USU: IC50)
# Method: as §1, §6
# MDA PCa2b cells = assay: Cell growth inhibition, MDA PCa2b; assay type: cell-based; details: MDA-PCa-2b, ERG negative prostate cancer, read-out: Cell growth inhibition (ERGi-USU: IC50)
# Method: as §1, §6
# LAPC4 cells = assay: Cell growth inhibition, LAPC4; assay type: cell-based; details: Homo sapiens; LAPC4, ERG negative metastatic prostate cancer; read-out: Cell growth inhibition (ERGi-USU: IC50)
# Method: as §1, §6
# RWPE-1 cells = assay: Cell growth inhibition, RWPE-1; assay type: cell-based; details: Homo sapiens; RWPE-1, normal prostate; read-out: Cell growth inhibition (ERGi-USU: IC50)
# Method: as §1, §6
# BPH-1 cells = assay: Cell growth inhibition, BPH-1; assay type: cell-based; details: Homo sapiens; BPH-1, normal prostate; read-out: Cell growth inhibition (ERGi-USU: IC50)
# Method: as §1, §6
# HUVEC cells = assay: Cell growth inhibition, HUVEC; assay type: cell-based; details: Homo sapiens, ERG positive normal endothelial, read-out: Cell growth inhibition (ERGi-USU: IC50)
# Method: as §1, §6
# VCaP xenograft tumors = assay: VCaP xenograft tumor growth inhibition in nude mice; assay type: in vivo; details: male nude mice, 150 mg/kg intraperitoneally 3 times per week, versus vehicle control and 100 mg/kg
# Method: Male athymic nude mice 6-8 weeks old and weighing 27 to 30 g were purchased from Charles River Laboratories. ERG harboring prostate cancer cells (VCaP) were trypsinized and washed twice with ice-cold PBS, and resuspended in ice-cold 50% matrigel in serum-free DMEM medium. A total of 4×10^6 cells/0.1 ml/mouse were subcutaneously injected into lower right dorsal flank of the mice. Prior to injection, mice were anesthetized with inhalation anesthesia (isoflurane). Tumor growth was monitored weekly after injection. Three weeks later when tumors were palpable mice were randomly separated into 2 experimental groups and one control group of 7 mice in each group. In the treatment groups mice were injected intraperitoneally (I.P) with 100 mg/kg of ERGi-USU or 150 mg/kg of ERGi-USU while the control group were injected with vehicle (1:1 [v/v], DMSO/PEG300) only. Growth in tumor volume was recorded weekly by digital caliper measurements and tumor volumes calculated using the ½ (L×W^2) formula, where L=length of tumor and W=width. Tumor volumes were compared between treated and control groups with repeated measurements and statistical significance of the results between the groups computed using students t-test and p values calculated.
# Male nude mice were injected with about 4×10^6 VCaP cells and tumor growth was monitored. […] Tumor growth was monitored weekly.
# [1] = AR positive/ERG negative LNCaP, MDA PCa2b and LAPC4 cells, 48 hours
smiles,measurement,setting,value
Oc1ccc2ccccc2c1/N=N/c1ccccn1 [ED-1],inhibition of cell growth,VCaP cells,inhibited the growth of VCaP prostate cancer cells
same,inhibition of cell growth,LNCaP cells,no measurable inhibitory effect
"Oc1ccc2ccccc2c1/N=N/c1nccs1 [ERGi-USU, 1-(thiazol-2-yldiazenyl)naphthalene-2-ol]","inhibition of ERG protein expression (In-cell Western, normalized by cell number)",ERG protein,inhibitors of ERG protein expression
same,inhibition of ERG mRNA expression (qRT-PCR),ERG mRNA,inhibitors of ERG-mRNA expression
same,inhibition of AR protein expression,AR; [1],does not inhibit
same,inhibition of AR protein expression,AR; VCaP cells,"inhibits expression of PSA, and AR proteins"
same,inhibition of PSA protein expression,PSA; [1],does not inhibit
same,inhibition of PSA protein expression,PSA; VCaP cells,"inhibits expression of PSA, and AR proteins"
same,IC50,"VCaP cells; Homo sapiens, VCaP, ERG positive metastatic prostate cancer, read-out: Cell growth inhibition (ERGi-USU: IC50)",300 nM
same,IC50,COLO320 cells,300 nM
same,IC50,MOLT-4 cells,50 nM
same,IC50,KG-1 cells,200 nM
same,IC50,"LNCaP cells; Homo sapiens, LNCaP, ERG negative metastatic prostate cancer, read-out: Cell growth inhibition (ERGi-USU: IC50)",> 10000 nM
same,IC50,MDA PCa2b cells,> 10000 nM
same,IC50,LAPC4 cells,> 10000 nM
same,IC50,RWPE-1 cells,> 10000 nM
same,IC50,BPH-1 cells,> 10000 nM
same,IC50,HUVEC cells,> 10000 nM
same,tumor volume,VCaP xenograft tumors,exhibited the smallest volumes
NC(c1ccccc1)c1c(O)ccc2ccccc12 (stereo not drawn) [ED-3],inhibition of cell growth,VCaP cells,inhibited the growth of VCaP prostate cancer cells
same,inhibition of cell growth,LNCaP cells,no measurable inhibitory effect
Cc1[nH]ccc2c1[nH]c1cc(=O)ccc12 [NSC72292],inhibition of ERG mRNA expression (qRT-PCR),ERG mRNA,inhibitors of ERG-mRNA expression
"Oc1ccc2ccccc2c1/N=N/c1nccs1 [NSC99629, reference compound]",inhibition of ERG mRNA expression (qRT-PCR),ERG mRNA,inhibitors of ERG-mRNA expression
same,inhibition of AR protein expression,AR; VCaP cells,No appreciable inhibition
same,inhibition of PSA protein expression,PSA; VCaP cells,No appreciable inhibition
Nc1c(O)ccc2ccccc12 [ED-2],inhibition of cell growth,VCaP cells,inhibited the growth of VCaP prostate cancer cells
same,inhibition of cell growth,LNCaP cells,no measurable inhibitory effect
